Assay [1] concerns the target T1, PDE5A (Homo sapiens, UniProt O76074).
T1 construct: they are full-length with N-terminal GST tag; GST (N); purchased BPS Biosciences 60050; host or cells: baculovirus infected Sf9 cells
Put plainly: PDE enzyme activity assay (HTRF cGMP), PDE5A. Format: biochemical. Conditions: recombinant enzyme; read-out: PDE5A1 inhibition (IC50).

Assay [2] addresses HDAC1 (Homo sapiens, UniProt Q13547). As to the kind of experiment: HDAC enzyme activity assay (fluorogenic substrate), HDAC1. Conditions: recombinant enzyme; read-out: HDAC1 inhibition (IC50). In kind it is biochemical.
Assay [3] concerns the target T2, PDE9A isoform b (Homo sapiens, UniProt O76083).
T2 construct: they are full-length with N-terminal GST tag; GST (N); purchased BPS Biosciences 60090; host or cells: baculovirus infected Sf9 cells
Put plainly: PDE enzyme activity assay (HTRF cGMP), PDE9A. Format: biochemical. The following applies: recombinant enzyme; read-out: PDE9A inhibition (IC50).

Assay [4] concerns the target T3, HDAC6 (Homo sapiens, UniProt Q9UBN7).
T3 construct: BC069243; Cat. #50006) is full-length with N-terminal GST tag; GST (N); purchased BPS Biosciences 50006; host or cells: baculovirus infected Sf9 cells
T3 sequence (Q9UBN7 1-1215): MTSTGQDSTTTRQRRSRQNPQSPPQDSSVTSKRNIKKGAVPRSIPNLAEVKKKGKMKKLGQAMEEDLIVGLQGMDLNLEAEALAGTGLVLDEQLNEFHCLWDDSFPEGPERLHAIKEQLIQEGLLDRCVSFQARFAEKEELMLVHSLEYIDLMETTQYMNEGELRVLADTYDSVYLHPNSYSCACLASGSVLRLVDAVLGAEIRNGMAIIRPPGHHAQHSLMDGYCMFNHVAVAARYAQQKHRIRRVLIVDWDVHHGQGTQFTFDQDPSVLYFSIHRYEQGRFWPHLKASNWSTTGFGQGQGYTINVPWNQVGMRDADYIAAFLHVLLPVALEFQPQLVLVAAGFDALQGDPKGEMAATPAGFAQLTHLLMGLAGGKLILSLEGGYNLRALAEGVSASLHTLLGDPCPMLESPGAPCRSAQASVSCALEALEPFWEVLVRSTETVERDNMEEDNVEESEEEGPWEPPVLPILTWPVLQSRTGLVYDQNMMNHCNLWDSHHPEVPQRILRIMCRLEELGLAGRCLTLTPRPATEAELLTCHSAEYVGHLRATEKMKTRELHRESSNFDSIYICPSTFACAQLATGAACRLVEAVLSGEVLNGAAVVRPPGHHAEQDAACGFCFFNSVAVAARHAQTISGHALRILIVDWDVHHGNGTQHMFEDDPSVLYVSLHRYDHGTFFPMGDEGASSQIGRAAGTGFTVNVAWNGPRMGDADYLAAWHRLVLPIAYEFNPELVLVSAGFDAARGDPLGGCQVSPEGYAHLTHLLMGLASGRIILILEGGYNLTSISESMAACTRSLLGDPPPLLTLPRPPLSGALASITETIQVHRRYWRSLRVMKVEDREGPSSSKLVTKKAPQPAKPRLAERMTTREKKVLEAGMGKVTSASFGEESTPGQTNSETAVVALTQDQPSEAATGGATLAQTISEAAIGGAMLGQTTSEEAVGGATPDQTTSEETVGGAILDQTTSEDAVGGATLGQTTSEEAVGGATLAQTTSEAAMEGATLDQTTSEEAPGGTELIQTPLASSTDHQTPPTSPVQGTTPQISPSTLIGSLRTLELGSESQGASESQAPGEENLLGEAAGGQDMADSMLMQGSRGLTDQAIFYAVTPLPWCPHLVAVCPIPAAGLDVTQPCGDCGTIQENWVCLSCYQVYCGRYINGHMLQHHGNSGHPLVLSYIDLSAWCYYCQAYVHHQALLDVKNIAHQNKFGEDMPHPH
As to the kind of experiment: HDAC enzyme activity assay (fluorogenic substrate), HDAC6. In kind it is biochemical. The following applies: recombinant enzyme; read-out: HDAC6 inhibition (IC50).

In assay [5] the target is T4, HDAC2 (Homo sapiens, UniProt Q92769).
T4 construct: NM_001527; Cat. #50002) is full-length with C-terminal his tag; His (C); purchased BPS Biosciences 50002; host or cells: baculovirus infected Sf9 cells
As to the kind of experiment: HDAC enzyme activity assay (fluorogenic substrate), HDAC2. In kind it is biochemical. Conditions: recombinant enzyme; read-out: HDAC2 inhibition (IC50).

Assay [6] relates to acetylated histone 3 at Lys9 (AcH3K9). Put plainly: HDAC activity in wild type primary neurons (Western blot AcH3K9). In kind it is cell-based, mouse. The following applies: Mus musculus, Neuron, 0.5 h, 30 min, EC50 = 50% increase in AcH3K9 over basal, read-out: AcH3 (EC50). On the technique in general: Immunoblotting shows a protein as a band on a membrane.
Assay [7] deals with pCREB. Put plainly: PDE activity in wild type primary neurons (Western blot pCREB). In kind it is cell-based. Conditions: Mus musculus, Neuron, 0.5 h, 30 min, EC50 = 50% increase in pCREB over basal.

Our source for the IC50 and EC50 values is US9573956B2, “Compounds as dual inhibitors of phosphodiesterases and histone deacetylases” (FUNDACIÓN PARA LA INVESTIGACIÓN MÉDICA APLICADA, priority 2013, dated 2017).

As a reminder, the IC50 is the concentration that inhibits the measured activity by half.

T2 sequence (O76083 1-533 isoform O76083-2): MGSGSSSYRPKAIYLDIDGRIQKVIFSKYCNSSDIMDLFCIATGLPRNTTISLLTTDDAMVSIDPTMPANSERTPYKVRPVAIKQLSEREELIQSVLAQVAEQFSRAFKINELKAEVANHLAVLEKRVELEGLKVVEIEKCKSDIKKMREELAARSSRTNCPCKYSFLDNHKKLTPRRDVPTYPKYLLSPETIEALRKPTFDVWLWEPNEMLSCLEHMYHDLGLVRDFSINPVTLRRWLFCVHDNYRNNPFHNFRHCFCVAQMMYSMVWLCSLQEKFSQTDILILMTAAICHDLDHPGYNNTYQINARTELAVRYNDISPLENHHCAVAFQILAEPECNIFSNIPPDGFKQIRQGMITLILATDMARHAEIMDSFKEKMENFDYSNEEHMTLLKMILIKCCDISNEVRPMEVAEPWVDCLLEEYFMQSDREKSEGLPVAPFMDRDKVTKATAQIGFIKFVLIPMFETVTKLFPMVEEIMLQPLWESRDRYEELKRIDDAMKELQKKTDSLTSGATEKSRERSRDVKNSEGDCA
HDAC1, sequence (Q13547 whole entry, canonical isoform): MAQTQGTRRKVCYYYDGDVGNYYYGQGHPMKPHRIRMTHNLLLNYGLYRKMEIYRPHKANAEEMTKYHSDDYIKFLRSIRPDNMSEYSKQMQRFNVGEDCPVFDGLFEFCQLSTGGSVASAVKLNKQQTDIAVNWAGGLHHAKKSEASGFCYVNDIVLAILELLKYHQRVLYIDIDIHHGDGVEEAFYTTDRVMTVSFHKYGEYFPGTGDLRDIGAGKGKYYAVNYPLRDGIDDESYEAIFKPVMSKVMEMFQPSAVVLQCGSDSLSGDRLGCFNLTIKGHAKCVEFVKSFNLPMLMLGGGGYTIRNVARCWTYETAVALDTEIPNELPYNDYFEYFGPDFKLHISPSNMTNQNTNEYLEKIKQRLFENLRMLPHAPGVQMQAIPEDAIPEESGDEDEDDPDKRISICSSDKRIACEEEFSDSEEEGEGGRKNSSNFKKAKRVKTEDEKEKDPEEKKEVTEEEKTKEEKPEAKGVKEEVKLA
T4 sequence (Q92769 whole entry): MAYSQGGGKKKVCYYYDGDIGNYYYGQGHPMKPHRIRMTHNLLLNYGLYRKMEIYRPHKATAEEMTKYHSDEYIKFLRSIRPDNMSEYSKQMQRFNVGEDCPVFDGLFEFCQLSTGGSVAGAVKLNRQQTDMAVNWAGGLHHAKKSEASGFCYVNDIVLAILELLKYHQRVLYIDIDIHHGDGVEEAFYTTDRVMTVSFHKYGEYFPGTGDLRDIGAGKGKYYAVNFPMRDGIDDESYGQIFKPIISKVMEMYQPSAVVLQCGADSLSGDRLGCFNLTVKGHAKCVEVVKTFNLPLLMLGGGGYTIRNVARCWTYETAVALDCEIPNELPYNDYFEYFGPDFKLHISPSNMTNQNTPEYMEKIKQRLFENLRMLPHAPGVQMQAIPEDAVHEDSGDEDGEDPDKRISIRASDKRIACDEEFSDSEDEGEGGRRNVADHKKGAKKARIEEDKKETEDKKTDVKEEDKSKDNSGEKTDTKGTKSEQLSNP

On to `CC1CN(CC2CCN(c3ncc(C(=O)NO)cn3)CC2)CC1c1nc2c(cnn2C2CCOCC2)c(=O)[nH]1` (racemic) [Example 3-02, 2-(4-((3-(4,5-Dihydro-1-(tetrahydro-2H-pyran-4-yl)-4-oxo-1H-pyrazolo[3,4-d]pyrimidin-6-yl)-4-methylpyrrolidin-1-yl)methyl)piperidin-1-yl)-N-hydroxypyrimidine-5-carboxamide], for which the IC50 in assay [1] fell in the range of 1000 to 10000 nM; in assay [2] it was 10 to 1000 nM; in assay [3], 10 to 1000 nM.

Regarding `C[C@H]1CN(Cc2ccc(C(=O)NO)cc2)C[C@@H]1c1nc2c(cnn2C2CCOCC2)c(=O)[nH]1` (racemic) [Example 3-09, 4-[[(3R,4R)-3-methyl-4-(4-oxo-1-tetrahydropyran-4-yl-5H-pyrazolo[3,4-d]pyrimidin-6-yl)pyrrolidin-1-yl]methyl]benzenecarbohydroxamic acid], the IC50 in assay [4] and in assay [3] was 10 to 1000 nM in each case.

With `C[C@@H]1CN(Cc2ccc(C(=O)NO)s2)C[C@H]1c1nc2c(cnn2C2CCOCC2)c(=O)[nH]1` (racemic) [Example 3-10], the IC50 in assay [4] and in assay [3] was 10 to 1000 nM each time.

As for `C[C@@H]1CN(Cc2ccc(C(=O)NO)cc2)C[C@H]1c1nc2c(cnn2C2CCCC2)c(=O)[nH]1` (racemic) [Example 3-11], the IC50 in assay [4] and in assay [3] was 10 to 1000 nM throughout.

Take `CC1CN(CC2CC(C(=O)NO)C2)CC1c1nc2c(cnn2C2CCOCC2)c(=O)[nH]1` (racemic) [Example 3-12]: the IC50 in assay [5] was > 10000 nM; in assay [4] it was 1000 to 10000 nM; in assay [2], 1000 to 10000 nM; in assay [3], 10 to 1000 nM.

Consider `CC1CN(Cc2ccc(C(=O)NO)s2)CC1c1nc2c(cnn2C2CCCC2)c(=O)[nH]1` (racemic) [Example 3-17], for which the IC50 is 1000 to 10000 nM in assay [5], 10 to 1000 nM in assay [4], 10 to 1000 nM in assay [2] and < 10 nM in assay [3].

On to `CCCc1nn(C)c2c(=O)[nH]c(-c3cc(S(=O)(=O)Nc4ccc(/C=C/C(=O)NO)cc4)ccc3OCC)nc12` [Example 1-03], for which the IC50 in assay [5] is 10 to 1000 nM; in assay [1], < 10 nM; in assay [2] it was 10 to 1000 nM; in assay [3], 1000 to 10000 nM.

Take `CCCc1nn(C)c2c(=O)[nH]c(-c3cc(CC4CCC(C(=O)NO)CC4)ccc3OCC)nc12` (centres unmarked) [Example 1-29, 4-[[4-ethoxy-3-(1-methyl-7-oxo-3-propyl-6H-pyrazolo[4,3-d]pyrimidin-5-yl)phenyl]methyl]cyclohexanecarbohydroxamic acid]: the IC50 in assay [5] is > 10000 nM; in assay [4] it was 10 to 1000 nM; in assay [1] it was 10 to 1000 nM; in assay [2], 10 to 1000 nM. Moreover, the EC50 in assay [6] and in assay [7] was 1000 to 10000 nM in each case.

In the case of `CCCc1nn(C)c2c(=O)[nH]c(-c3cc(-c4ccc(C(=O)NO)cc4)ccc3OCC)nc12` [Example 1-30], the 50% inhibitory concentration (IC50) was 1000 to 10000 nM in assay [5], 10 to 1000 nM in assay [4], < 10 nM in assay [1] and 10 to 1000 nM in assay [2]. Moreover, the EC50 in assay [6] and in assay [7] was 10 to 1000 nM in each case.

`CCCc1nn(C)c2c(=O)[nH]c(-c3cc(C4CCC(C(=O)NO)CC4)ccc3OCC)nc12` (centres unmarked) [Example 1-40, 4-[4-ethoxy-3-(1-methyl-7-oxo-3-propyl-6H-pyrazolo[4,3-d]pyrimidin-5-yl)phenyl]cyclohexanecarbohydroxamic acid]: the IC50 is > 10000 nM in assay [5], 10 to 1000 nM in assay [4], 10 to 1000 nM in assay [1] and 1000 to 10000 nM in assay [2]. Moreover, the EC50 in assay [6] was in the range of 10 to 1000 nM; in assay [7], 1000 to 10000 nM.

On to `CCCc1nn(C)c2c(=O)[nH]c(-c3cc(CN4CCN(c5ncc(C(=O)NO)cn5)CC4)ccc3OCC)nc12` [Example 1-48, 2-[4-[[4-ethoxy-3-(1-methyl-7-oxo-3-propyl-6H-pyrazolo[4,3-d]pyrimidin-5-yl)phenyl]methyl]piperazin-1-yl]pyrimidine-5-carbohydroxamic acid], for which the IC50 was 10 to 1000 nM in assay [5], 10 to 1000 nM in assay [4], < 10 nM in assay [1] and 10 to 1000 nM in assay [2]. The EC50 in assay [6] and in assay [7] was 10 to 1000 nM throughout.

In the case of `CCCc1nc(C)c2c(=O)[nH]c(-c3cc(S(=O)(=O)N4CCN(CCCC(=O)NO)CC4)ccc3OCC)nn12` [Example 2-02, 4-[4-[4-ethoxy-3-(5-methyl-4-oxo-7-propyl-3H-imidazo[5,1-f][1,2,4]triazin-2-yl)phenyl]sulfonylpiperazin-1-yl]butanehydroxamic acid], the values for the IC50 in assay [1], in assay [2] and in assay [3] were < 10 nM, 10 to 1000 nM and 10 to 1000 nM, respectively.

`CCCc1nc(C)c2c(=O)[nH]c(-c3cc(S(=O)(=O)Nc4ccc(/C=C/C(=O)NO)cc4)ccc3OCC)nn12` [Example 2-03]: the IC50 in assay [1] is < 10 nM; in assay [2], 10 to 1000 nM; in assay [3], 1000 to 10000 nM.

Turning to `CCCc1nc(C)c2c(=O)[nH]c(-c3cc(S(=O)(=O)N4CCN(c5ncc(C(=O)NO)cn5)CC4)ccc3OCC)nn12` [Example 2-05], the IC50 was < 10 nM in assay [1], < 10 nM in assay [2] and > 10000 nM in assay [3].

Regarding `CCCc1nc(C)c2c(=O)[nH]c(-c3cc(CC4CC(C(=O)NO)C4)ccc3OCC)nn12` (centres unmarked) [Example 2-07, 3-[[4-ethoxy-3-(5-methyl-4-oxo-7-propyl-3H-imidazo[5,1-f][1,2,4]triazin-2-yl)phenyl]methyl]cyclobutanecarbohydroxamic acid], the IC50 is 1000 to 10000 nM in assay [5], 10 to 1000 nM in assay [4], < 10 nM in assay [1] and 10 to 1000 nM in assay [2]. In addition, the EC50 in assay [6] and in assay [7] was 10 to 1000 nM in each case.

Consider `CC(c1nc2c(cnn2C2CCOCC2)c(=O)[nH]1)N1CC(Oc2ccc(-c3ccc(C(=O)NO)cc3)cc2)C1` (centres unmarked) [Example 3-03, 4-[4-[1-[1-(4-Oxo-1-tetrahydropyran-4-yl-5H-pyrazolo[3,4-d]pyrimidin-6-yl)ethyl]azetidin-3-yl]oxyphenyl]benzene carbohydroxamic acid], for which the IC50 was > 10000 nM in assay [1], 1000 to 10000 nM in assay [2] and 10 to 1000 nM in assay [3].

As to `CC(c1nc2c(cnn2C2CCOCC2)c(=O)[nH]1)N1CC(Oc2ccc(C(=O)NO)cc2)C1` (centres unmarked) [Example 3-13], the concentration for half-maximal inhibition (IC50) lay within 1000 to 10000 nM in assay [5], 10 to 1000 nM in assay [4], 10 to 1000 nM in assay [2] and 10 to 1000 nM in assay [3].

For `CC(c1nc2c(cnn2C2CCOCC2)c(=O)[nH]1)N1CC(Cc2ccc(C(=O)NO)cc2)C1` (centres unmarked) [Example 3-15], the IC50 in assay [5] lay within 1000 to 10000 nM; in assay [4], 10 to 1000 nM; in assay [2], 1000 to 10000 nM; in assay [3], 10 to 1000 nM.

In the case of `CC(c1nc2c(cnn2C2CCOCC2)c(=O)[nH]1)N1CC(Cc2ccc(C(=O)NO)s2)C1` (centres unmarked) [Example 3-16], the concentration for half-maximal inhibition (IC50) is 1000 to 10000 nM in assay [5], 1000 to 10000 nM in assay [4], 1000 to 10000 nM in assay [2] and 10 to 1000 nM in assay [3].

Turning to `O=C(NO)c1cnc(N2CCC(CN3CC(=O)N4[C@H](c5ccc6c(c5)OCO6)c5[nH]c6ccccc6c5C[C@@H]4C3=O)CC2)nc1` [Example 4-05], the IC50 in assay [5] is 10 to 1000 nM; in assay [4], 10 to 1000 nM; in assay [1], 10 to 1000 nM; in assay [2], 10 to 1000 nM; in assay [3] it was > 10000 nM.
